One substance from paper PMC7714071, “Interaction of amyloid beta with humanin and acetylcholinesterase is modulated by ATP” (FEBS Open Bio, 2020) can be followed below.

The test system of this test is Aβ40. As to the kind of experiment: ELISA, binding of biotinylated-HN to immobilised Aβ40. The conditions noted are these: Aβ 100 nM on wells, biotinylated-HN 300 nM, increasing HS; three independent assays; Fig. 2B. The protocol:
ELISAs were carried out as we previously reported. Nunc MaxiSorp 96‐well flat bottom plate (Thermo Fisher) wells were coated with samples as indicated. The plates were incubated overnight at 4 °C on a shaker to allow binding of the samples to the plate wells. After the incubation, the wells were washed 4× with TBST, filled with 400 µL blocking buffer (110 mM KCl, 5 mM NaHCO3, 5 mM MgCl2, 1 mM EGTA, 0.1 mM CaCl2, 20 mM HEPES, 1% BSA, pH 7.4), and incubated with shaking overnight at 4 °C. The wells were then washed 4× with TBST, and 100 µL of sample at the desired concentration was added to each well and incubated with shaking overnight at 4 °C. TBST was then used to wash the wells 4× before proceeding in one of two ways: (a) biotinylated samples were analyzed by adding 100 µL streptavidin–HRP conjugate in TBST (1 : 2500 dilution) to the samples followed by incubation for 3 h at RT on a shaker, or (b) samples without biotin were analyzed by adding 100 µL TBST containing the primary antibody as per the manufacturer's recommendation, incubating for 3 h at RT on a shaker, followed by washing the wells 4× with TBST. […] The reaction was stopped with 100 µL 2 M H2SO4 after incubating at RT for 0.5–15 min, resulting in a yellow color change, measured by absorbance at 450 nm. […] Statistical analysis was determined by the […] […] Data were expressed as the mean ± SD. […]

Regarding heparan sulfate [HS], the “effect of HS on binding of HN to Aβ40” value was “No effects”.
